Assay results: US20060069132A1, “Azolecarboxamide herbicides” (priority 2004, published 2006)

What was measured:
[1] = test system: common ragweed; test: Test C pre-/postemergence herbicide test; format: in vivo, Ambrosia elatior; set-up: key to Plant response rating, Ragweed: 0 = no effect, 100 = complete control; details: for Plant response rating, Ragweed / Plant response rating (0 = no effect, 100 = complete control), Ragweed: preemergence; for Plant response rating (0 = no effect, 100 = complete control), Ragweed: 62 g ai/ha
Summary of the method: (§1)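 Seeds were planted and sprayed preemergence with test chemicals in a non-phytotoxic solvent mixture containing surfactant; postemergence treatments went onto plants 2 to 18 cm tall (1- to 4-leaf stage). After 12 to 14 days in a greenhouse, injury was rated visually against untreated controls on a 0–100 scale.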

[2] = test system: kochia; test: Test C pre-/postemergence herbicide test; format: in vivo, Kochia scoparia; details: for Plant response rating, Kochia / Plant response rating (0 = no effect, 100 = complete control), Kochia: preemergence; for Plant response rating (0 = no effect, 100 = complete control), Kochia: 62 g ai/ha
Summary of the method: as §1

[3] = test system: corn; test: Test C pre-/postemergence herbicide test; format: in vivo, Zea mays; details: for Plant response rating, Corn / Plant response rating (0 = no effect, 100 = complete control), Corn: preemergence; for Plant response rating (0 = no effect, 100 = complete control), Corn: 62 g ai/ha
Summary of the method: as §1

[4] = test system: smallflower umbrella sedge; test: Test C flooded paddy test; format: in vivo, Cyperus difformis; details: for Plant response rating, Sedge, Umbrella: 500 g ai/ha, visual rating after 12 to 14 days
[5] = test system: barnyardgrass; test: Test A pre-/postemergence herbicide test; format: in vivo, Echinochloa crus-galli; details: for Plant response rating, Barnyardgrass: Postemergence; for Barnyardgrass plant response rating: Preemergence
Summary of the method: (§2)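 Seeds sown in sandy loam received a preemergence directed soil spray of compound in non-phytotoxic solvent with surfactant; postemergence plants (2–10 cm, one- to two-leaf stage) were sprayed to runoff at the same time. After ~10 days in greenhouse, injury was rated visually versus untreated controls (0 = no effect, 100 = complete control).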

[6] = test system: johnsongrass; test: Test C pre-/postemergence herbicide test; format: in vivo, Sorghum halepense; details: for Plant response rating, Johnsongrass / Plant response rating (0 = no effect, 100 = complete control), Johnsongrass: preemergence; for Plant response rating (0 = no effect, 100 = complete control), Johnsongrass: 62 g ai/ha
Summary of the method: as §1

[7] = test system: giant foxtail; test: Test A pre-/postemergence herbicide test; format: in vivo, Setaria faberi; details: for Plant response rating, Foxtail, Giant: Postemergence; for Foxtail, Giant plant response rating: Preemergence
Summary of the method: as §2

[8] = test system: giant foxtail; test: Test C pre-/postemergence herbicide test; format: in vivo, Setaria faberi; details: for Plant response rating, Foxtail, Giant / Plant response rating (0 = no effect, 100 = complete control), Foxtail, Giant: preemergence; for Plant response rating (0 = no effect, 100 = complete control), Foxtail, Giant: 62 g ai/ha
Summary of the method: as §1

[9] = test system: rice; test: Test C flooded paddy test; format: in vivo, Oryza sativa; details: for Plant response rating, Rice: 500 g ai/ha, visual rating after 12 to 14 days
Summary of the method: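 Injury scored visually against controls on a 0 (no effect) to 100 (complete control) scale, 12 to 14 days after treatment in greenhouse. Flooded paddy plants treated at 2-leaf stage; postemergence plants at 1- to 4-leaf stage, 2 to 18 cm tall.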

[10] = test system: large crabgrass; test: Test A pre-/postemergence herbicide test; format: in vivo, Digitaria sanguinalis; details: for Plant response rating, Crabgrass, Large: Postemergence; for Crabgrass, Large plant response rating: Preemergence
Summary of the method: as §2

[11] = 125 g ai/ha, scale 0 (no effect) to 100 (complete control), visual, 12 to 14 days
[12] = 250 g ai/ha, scale 0 to 100 (0 no effect, 100 complete control), visual, 12 to 14 days
[13] = 62 g ai/ha, scale 0 to 100 (0 no effect, 100 complete control)
[14] = 125 g ai/ha, scale of 0 to 100, 0 is no effect, 100 is complete control
[15] = 250 g ai/ha, scale of 0 to 100, 0 is no effect, 100 is complete control
[16] = scale 0 to 100 (0 no effect, 100 complete control)
[17] = 500 g ai/ha, 0 to 100 scale, 0 no effect, 100 complete control
[18] = 2000 g ai/ha, 0 to 100 scale, 0 no effect, 100 complete control
[19] = 500 g ai/ha, visual rating, 0 to 100 scale (0 no effect, 100 complete control)
[20] = Preemergence, 500 g ai/ha, scale 0 to 100, 0 no effect, 100 complete control

In the case of `CCn1nc(C(C)(C)C)cc1C(=O)Nc1cccc(C(=O)NCC2CC2)c1` [Compound 62], the “Plant response rating, Ragweed” value ([1]; 31 g ai/ha, scale 0 to 100) is reported as 0, the “Plant response rating (0 = no effect, 100 = complete control), Ragweed” value [1] is reported as 10 and the “Plant response rating, Ragweed” value [1, 11] is reported as 20. The “Plant response rating, Ragweed” value [1, 12] was 85, the “Plant response rating, Kochia” value ([2]; 31 g ai/ha, scale 0 to 100) was 100 and the “Plant response rating (0 = no effect, 100 = complete control), Kochia” value [2] was 100. The “Plant response rating, Kochia” value [2, 11] was 100, the “Plant response rating, Kochia” value [2, 12] was 100 and the “Plant response rating, Corn” value ([3]; 31 g ai/ha, scale 0 to 100) was 0. For the same molecule, the “Plant response rating (0 = no effect, 100 = complete control), Corn” value [3] was 0, the “Plant response rating, Corn” value [3, 11] was 0 and the “Plant response rating, Corn” value [3, 12] was 0. The “Sedge, Umbrella plant response rating” value [4, 13] was 45, the “Sedge, Umbrella plant response rating” value [4, 14] was 60 and the “Sedge, Umbrella plant response rating” value [4, 15] was 80. For the same molecule, the “Plant response rating, Sedge, Umbrella” value [4, 16] was 85, the “Plant response rating, Barnyardgrass” value [5, 17] was 65 and the “Plant response rating, Barnyardgrass” value [5, 18] was 100. The “Barnyardgrass plant response rating” value [5, 19] was 50, the “Barnyardgrass plant response rating” value [5, 18] was 95 and the “Plant response rating, Johnsongrass” value ([6]; 31 g ai/ha, scale 0 to 100) was 0. The “Plant response rating (0 = no effect, 100 = complete control), Johnsongrass” value [6] was 40, the “Plant response rating, Johnsongrass” value [6, 11] was 40 and the “Plant response rating, Johnsongrass” value [6, 12] was 70. The “Plant response rating, Foxtail, Giant” value [7, 17] was 55, the “Plant response rating, Foxtail, Giant” value [7, 18] was 85 and the “Foxtail, Giant plant response rating” value [7, 19] was 75. The “Foxtail, Giant plant response rating” value [7, 18] was 100, the “Plant response rating, Foxtail, Giant” value ([8]; 31 g ai/ha, scale 0 to 100) was 5 and the “Plant response rating (0 = no effect, 100 = complete control), Foxtail, Giant” value [8] was 15. For the same molecule, the “Plant response rating, Foxtail, Giant” value [8, 11] was 65, the “Plant response rating, Foxtail, Giant” value [8, 12] was 85 and the “Rice plant response rating” value [9, 13] was 15. The “Rice plant response rating” value [9, 14] was 25, the “Rice plant response rating” value [9, 15] was 45 and the “Plant response rating, Rice” value [9, 16] was 65. For the same molecule, the “Plant response rating, Crabgrass, Large” value [10, 17] was 25, the “Plant response rating, Crabgrass, Large” value [10, 18] was 60 and the “Crabgrass, Large plant response rating” value [10, 19] was 70. The “Crabgrass, Large plant response rating” value [10, 18] was 85.
In the case of `CCN1CCc2c(NC(=O)c3cc(C(C)(C)C)nn3CC)cccc2C1=O` [Compound 63], the “Plant response rating (0 = no effect, 100 = complete control), Ragweed” value [1] is reported as 0, the “Plant response rating, Ragweed” value [1, 11] is reported as 0 and the “Plant response rating, Ragweed” value [1, 12] is reported as 10. The “Ragweed plant response rating” value [1, 20] was 95, the “Plant response rating (0 = no effect, 100 = complete control), Kochia” value [2] was 30 and the “Plant response rating, Kochia” value [2, 11] was 80. The “Plant response rating, Kochia” value [2, 12] was 90, the “Kochia plant response rating” value [2, 20] was 90 and the “Plant response rating (0 = no effect, 100 = complete control), Corn” value [3] was 0. For the same molecule, the “Plant response rating, Corn” value [3, 11] was 0, the “Plant response rating, Corn” value [3, 12] was 5 and the “Corn plant response rating” value [3, 20] was 30. For the same molecule, the “Sedge, Umbrella plant response rating” value [4, 13] was 0, the “Sedge, Umbrella plant response rating” value [4, 14] was 70 and the “Sedge, Umbrella plant response rating” value [4, 15] was 80. For the same molecule, the “Plant response rating, Sedge, Umbrella” value [4, 16] was 90, the “Plant response rating, Barnyardgrass” value [5, 17] was 60 and the “Plant response rating, Barnyardgrass” value [5, 18] was 90. The “Barnyardgrass plant response rating” value [5, 19] was 70, the “Barnyardgrass plant response rating” value [5, 18] was 100 and the “Plant response rating (0 = no effect, 100 = complete control), Johnsongrass” value [6] was 30. The “Plant response rating, Johnsongrass” value [6, 11] was 60, the “Plant response rating, Johnsongrass” value [6, 12] was 75 and the “Johnsongrass plant response rating” value [6, 20] was 100. The “Plant response rating, Foxtail, Giant” value [7, 17] was 50, the “Plant response rating, Foxtail, Giant” value [7, 18] was 80 and the “Foxtail, Giant plant response rating” value [7, 19] was 95. For the same molecule, the “Foxtail, Giant plant response rating” value [7, 18] was 100, the “Plant response rating (0 = no effect, 100 = complete control), Foxtail, Giant” value [8] was 0 and the “Plant response rating, Foxtail, Giant” value [8, 11] was 5. The “Plant response rating, Foxtail, Giant” value [8, 12] was 10, the “Foxtail, Giant plant response rating” value [8, 20] was 80 and the “Rice plant response rating” value [9, 13] was 0. For the same molecule, the “Rice plant response rating” value [9, 14] was 0, the “Rice plant response rating” value [9, 15] was 15 and the “Plant response rating, Rice” value [9, 16] was 50. For the same molecule, the “Plant response rating, Crabgrass, Large” value [10, 17] was 40, the “Plant response rating, Crabgrass, Large” value [10, 18] was 80 and the “Crabgrass, Large plant response rating” value [10, 19] was 90. The “Crabgrass, Large plant response rating” value [10, 18] was 100.
